In ChEMBL document CHEMBL1201862, “PubChem BioAssay data set” (2004):
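Growth conditions: 96-well plates. Treatment: test compound, 48 hours, 5 concentrations. Analysis: linear interpolation between bracketing concentrations; unreached endpoints set to highest concentration. GI50 = concentration required for 50% inhibition of growth.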 Active and inactive are the calls of the source. Cut-off read from the data, not from the text of the source: active = GI50 up to about 1.1 µM and inactive = higher.

What was measured:
Experiment in all cases: NCI-60 cell line screen, 48 h
[1] = tested on: NCI-H522
[2] = tested on: SF-539
[3] = tested on: MDA-N
[4] = tested on: UO-31
[5] = tested on: SR
[6] = tested on: MCF7
[7] = tested on: SNB-19
[8] = tested on: HOP-62
[9] = tested on: COLO 205
[10] = tested on: UACC-257
[11] = tested on: HOP-92
[12] = tested on: HCT-15
[13] = tested on: OVCAR-3
[14] = tested on: OVCAR-8
[15] = tested on: CCRF-CEM
[16] = tested on: HCT-116
[17] = tested on: UACC-62
[18] = tested on: IGROV-1
[19] = tested on: SK-MEL-28
[20] = tested on: RPMI-8226
[21] = tested on: SK-MEL-2
[22] = tested on: A549
[23] = tested on: CAKI-1
[24] = tested on: Malme-3M
[25] = tested on: OVCAR-4
[26] = tested on: KM12
[27] = tested on: SK-MEL-5
[28] = tested on: NCI/ADR-RES
[29] = tested on: SK-OV-3
[30] = tested on: HT-29
[31] = tested on: Hs-578T
[32] = tested on: MDA-MB-435
[33] = tested on: DU-145
[34] = tested on: ACHN
[35] = tested on: RXF 393
[36] = tested on: SF-268
[37] = tested on: OVCAR-5
[38] = tested on: SW-620
[39] = tested on: NCI-H226
[40] = tested on: T47D
[41] = tested on: BT-549
[42] = tested on: SF-295
[43] = tested on: EKVX
[44] = tested on: NCI-H23
[45] = tested on: 786-0
[46] = tested on: A498
[47] = tested on: SNB-75
[48] = tested on: M14
[49] = tested on: NCI-H460
[50] = tested on: TK-10
[51] = tested on: LOX IMVI
[52] = tested on: MOLT-4
[53] = tested on: U-251
[54] = tested on: MDA-MB-231
[55] = tested on: SN12C
[56] = tested on: PC-3
[57] = tested on: K562
[58] = tested on: HCC 2998
[59] = tested on: HL-60

O=C(O)C1CCCCC1C(=O)Nc1nc2ccccc2[nH]1 (stereo not drawn)
GI50 [1]: > 100 µM (inactive)
GI50 [2]: > 100 µM (inactive)
GI50 [3]: > 100 µM (inactive)
GI50 [4]: > 100 µM (inactive)
GI50 [5]: > 100 µM (inactive)
GI50 [6]: > 100 µM (inactive)
GI50 [7]: > 100 µM (inactive)
GI50 [8]: > 100 µM (inactive)
GI50 [9]: > 100 µM (inactive)
GI50 [10]: > 100 µM (inactive)
GI50 [11]: > 100 µM (inactive)
GI50 [12]: > 100 µM
GI50 [13]: > 100 µM (inactive)
GI50 [14]: > 100 µM (inactive)
GI50 [15]: > 100 µM (inactive)
GI50 [16]: > 100 µM (inactive)
GI50 [17]: > 100 µM (inactive)
GI50 [18]: > 100 µM (inactive)
GI50 [19]: > 100 µM (inactive)
GI50 [20]: > 100 µM (inactive)
GI50 [21]: > 100 µM (inactive)
GI50 [22]: > 100 µM (inactive)
GI50 [23]: > 100 µM (inactive)
GI50 [24]: > 100 µM (inactive)
GI50 [25]: > 100 µM (inactive)
GI50 [26]: > 100 µM (inactive)
GI50 [27]: > 100 µM (inactive)
GI50 [28]: > 100 µM (inactive)
GI50 [29]: > 100 µM (inactive)
GI50 [30]: > 100 µM (inactive)
GI50 [31]: > 100 µM (inactive)
GI50 [32]: > 100 µM (inactive)
GI50 [33]: > 100 µM (inactive)
GI50 [34]: > 100 µM (inactive)
GI50 [35]: > 100 µM (inactive)
GI50 [36]: > 100 µM (inactive)
GI50 [37]: > 100 µM (inactive)
GI50 [38]: > 100 µM (inactive)
GI50 [39]: > 100 µM (inactive)
GI50 [40]: > 100 µM (inactive)
GI50 [41]: > 100 µM (inactive)
GI50 [42]: > 100 µM (inactive)
GI50 [43]: 63 µM (inactive)
GI50 [44]: > 100 µM (inactive)
GI50 [45]: > 100 µM (inactive)
GI50 [46]: > 100 µM (inactive)
GI50 [47]: > 100 µM (inactive)
GI50 [48]: > 100 µM (inactive)
GI50 [49]: > 100 µM (inactive)
GI50 [50]: > 100 µM (inactive)
GI50 [51]: > 100 µM (inactive)
GI50 [52]: 39.5 µM (inactive)
GI50 [53]: > 100 µM (inactive)
GI50 [54]: > 100 µM (inactive)
GI50 [55]: > 100 µM (inactive)
GI50 [56]: > 100 µM (inactive)

Cc1ccc(/N=N/C(=N\c2ccc(F)cc2)c2ccc(N(CCC#N)CCC#N)cc2)cc1
GI50 [1]: 19.2 µM (inactive)
GI50 [2]: > 100 µM (inactive)
GI50 [3]: > 100 µM (inactive)
GI50 [4]: > 100 µM (inactive)
GI50 [5]: 74.3 µM (inactive)
GI50 [6]: 42.5 µM (inactive)
GI50 [7]: > 100 µM (inactive)
GI50 [8]: > 100 µM (inactive)
GI50 [9]: 64.4 µM (inactive)
GI50 [10]: 30.3 µM (inactive)
GI50 [11]: > 100 µM (inactive)
GI50 [12]: > 100 µM
GI50 [13]: 86.3 µM (inactive)
GI50 [14]: 77.4 µM (inactive)
GI50 [15]: 97.5 µM (inactive)
GI50 [16]: 74.1 µM (inactive)
GI50 [17]: > 100 µM (inactive)
GI50 [57]: > 100 µM (inactive)
GI50 [18]: 70.1 µM (inactive)
GI50 [19]: > 100 µM (inactive)
GI50 [20]: 74.6 µM (inactive)
GI50 [21]: 62.7 µM (inactive)
GI50 [22]: 45.9 µM (inactive)
GI50 [23]: > 100 µM (inactive)
GI50 [25]: 60.3 µM (inactive)
GI50 [26]: 33.3 µM (inactive)
GI50 [27]: 44.1 µM (inactive)
GI50 [28]: > 100 µM (inactive)
GI50 [29]: > 100 µM (inactive)
GI50 [30]: > 100 µM (inactive)
GI50 [31]: 53.7 µM (inactive)
GI50 [32]: 82.2 µM (inactive)
GI50 [33]: > 100 µM (inactive)
GI50 [34]: > 100 µM (inactive)
GI50 [35]: > 100 µM (inactive)
GI50 [36]: > 100 µM (inactive)
GI50 [37]: > 100 µM (inactive)
GI50 [58]: 46.9 µM (inactive)
GI50 [38]: > 100 µM (inactive)
GI50 [39]: > 100 µM (inactive)
GI50 [40]: 47.1 µM (inactive)
GI50 [41]: 67.8 µM (inactive)
GI50 [42]: > 100 µM (inactive)
GI50 [43]: 99.5 µM (inactive)
GI50 [44]: > 100 µM (inactive)
GI50 [45]: > 100 µM (inactive)
GI50 [46]: > 100 µM (inactive)
GI50 [47]: > 100 µM (inactive)
GI50 [48]: > 100 µM (inactive)
GI50 [49]: 33.5 µM (inactive)
GI50 [50]: > 100 µM (inactive)
GI50 [52]: > 100 µM (inactive)
GI50 [53]: 36.2 µM (inactive)
GI50 [54]: > 100 µM (inactive)
GI50 [55]: > 100 µM (inactive)
GI50 [56]: 51.6 µM (inactive)

CN(C(=O)CCC(=O)O)c1ccccc1C(=O)O
GI50 [2]: > 100 µM (inactive)
GI50 [3]: > 100 µM (inactive)
GI50 [59]: > 100 µM (inactive)
GI50 [4]: > 100 µM (inactive)
GI50 [5]: > 100 µM (inactive)
GI50 [6]: > 100 µM (inactive)
GI50 [7]: > 100 µM (inactive)
GI50 [9]: > 100 µM (inactive)
GI50 [10]: 40.4 µM (inactive)
GI50 [11]: > 100 µM (inactive)
GI50 [12]: > 100 µM
GI50 [13]: > 100 µM (inactive)
GI50 [14]: > 100 µM (inactive)
GI50 [15]: > 100 µM (inactive)
GI50 [16]: > 100 µM (inactive)
GI50 [17]: > 100 µM (inactive)
GI50 [57]: > 100 µM (inactive)
GI50 [18]: > 100 µM (inactive)
GI50 [19]: > 100 µM (inactive)
GI50 [20]: > 100 µM (inactive)
GI50 [21]: > 100 µM (inactive)
GI50 [22]: > 100 µM (inactive)
GI50 [23]: > 100 µM (inactive)
GI50 [24]: > 100 µM (inactive)
GI50 [25]: > 100 µM (inactive)
GI50 [26]: > 100 µM (inactive)
GI50 [27]: > 100 µM (inactive)
GI50 [28]: > 100 µM (inactive)
GI50 [29]: > 100 µM (inactive)
GI50 [30]: > 100 µM (inactive)
GI50 [31]: > 100 µM (inactive)
GI50 [32]: > 100 µM (inactive)
GI50 [33]: > 100 µM (inactive)
GI50 [34]: > 100 µM (inactive)
GI50 [35]: > 100 µM (inactive)
GI50 [36]: > 100 µM (inactive)
GI50 [37]: > 100 µM (inactive)
GI50 [58]: > 100 µM (inactive)
GI50 [38]: > 100 µM (inactive)
GI50 [39]: > 100 µM (inactive)
GI50 [40]: > 100 µM (inactive)
GI50 [41]: > 100 µM (inactive)
GI50 [42]: > 100 µM (inactive)
GI50 [43]: > 100 µM (inactive)
GI50 [44]: > 100 µM (inactive)
GI50 [45]: > 100 µM (inactive)
GI50 [46]: > 100 µM (inactive)
GI50 [47]: > 100 µM (inactive)
GI50 [48]: > 100 µM (inactive)
GI50 [49]: > 100 µM (inactive)
GI50 [50]: > 100 µM (inactive)
GI50 [51]: > 100 µM (inactive)
GI50 [52]: > 100 µM (inactive)
GI50 [53]: > 100 µM (inactive)
GI50 [54]: > 100 µM (inactive)
GI50 [56]: > 100 µM (inactive)
